Source: ChEMBL document CHEMBL1201862, “PubChem BioAssay data set” (2004)
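A five-concentration, 48-hour dose response in 96-well plates underlies each endpoint, interpolated linearly between surrounding concentrations. GI50 = concentration required for 50% inhibition of growth.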 The source made the active and inactive calls. No stated cut-off is given here; in the data, active = GI50 up to about 1.1 µM and inactive = higher.

Experiments:
Assay in all cases: NCI tumour cell line growth inhibition, 48 h
786-0 = test system: 786-0
A498 = test system: A498
ACHN = test system: ACHN
BT-549 = test system: BT-549
COLO 205 = test system: COLO 205
DU-145 = test system: DU-145
HL-60 = test system: HL-60
HOP-92 = test system: HOP-92
M14 = test system: M14
MDA-MB-231 = test system: MDA-MB-231
NCI-H23 = test system: NCI-H23
OVCAR-4 = test system: OVCAR-4
OVCAR-8 = test system: OVCAR-8
PC-3 = test system: PC-3
RXF 393 = test system: RXF 393
SK-MEL-28 = test system: SK-MEL-28
TK-10 = test system: TK-10
U-251 = test system: U-251
UACC-62 = test system: UACC-62
UO-31 = test system: UO-31

Structure (SMILES)	GI50 (786-0)	GI50 (A498)	GI50 (ACHN)	GI50 (BT-549)	GI50 (COLO 205)	GI50 (DU-145)	GI50 (HL-60)	GI50 (HOP-92)	GI50 (M14)	GI50 (MDA-MB-231)	GI50 (NCI-H23)	GI50 (OVCAR-4)	GI50 (OVCAR-8)	GI50 (PC-3)	GI50 (RXF 393)	GI50 (SK-MEL-28)	GI50 (TK-10)	GI50 (U-251)	GI50 (UACC-62)	GI50 (UO-31)
COc1ccc(C2=C(N)c3ncccc3C2=O)cc1	> 100 µM (inactive)	> 100 µM (inactive)	> 10 µM (inactive)	> 100 µM (inactive)	72.6 µM (inactive)	> 100 µM (inactive)	93.8 µM (inactive)	> 10 µM (inactive)	> 100 µM (inactive)	> 100 µM (inactive)	> 100 µM (inactive)	> 100 µM (inactive)	> 100 µM (inactive)	> 100 µM (inactive)	24.7 µM (inactive)	> 100 µM (inactive)	> 10 µM (inactive)	> 100 µM (inactive)	60.8 µM (inactive)	> 100 µM (inactive)
CC(=O)Nc1ccc(COC(O)CN2CCCCC2)cc1[N+](=O)[O-] (stereo not given)	> 100 µM (inactive)	> 100 µM (inactive)	> 100 µM (inactive)	> 100 µM (inactive)	> 100 µM (inactive)	> 100 µM (inactive)	> 100 µM (inactive)	> 100 µM (inactive)	> 100 µM (inactive)	> 100 µM (inactive)	> 100 µM (inactive)	> 100 µM (inactive)	> 100 µM (inactive)	> 100 µM (inactive)	> 100 µM (inactive)	> 100 µM (inactive)	> 100 µM (inactive)	> 100 µM (inactive)	> 100 µM (inactive)	> 100 µM (inactive)
O=C(CSc1nnc(-c2ccccn2)s1)N/N=C/c1ccc([N+](=O)[O-])cc1	41.9 µM (inactive)	31 µM (inactive)	53.8 µM (inactive)	56.2 µM (inactive)	> 100 µM (inactive)	11.4 µM (inactive)	> 100 µM (inactive)	16.3 µM (inactive)	> 100 µM (inactive)	15.9 µM (inactive)	> 100 µM (inactive)	> 100 µM (inactive)	41.8 µM (inactive)	65.8 µM (inactive)	12.1 µM (inactive)	> 100 µM (inactive)	21.7 µM (inactive)	14.5 µM (inactive)	76.4 µM (inactive)	< 0.01 µM (active)
